Values of other authors in patent US20250319190A1, “APOE LIPOPROTEIN SYSTEMS” (Kisbee Therapeutics, Inc., priority 2022, published 2025).

How the values were obtained:
NPC1 = conditions: administered directly to the CNS; cited from earlier work
NPC1 models = conditions: cited from earlier work
[1] = system: mouse model of tauopathy with Parkinsonism; conditions: trehalose consumption; cited from earlier work
[2] = system: cellular model for Huntington's disease; conditions: in vitro treatment; cited from earlier work

Compound	efficacy (NPC1)	crossing of the blood-brain barrier (NPC1 models; mouse, in vivo)	CNS manifestations (NPC1 models; subcutaneously or intraperitoneally, very high doses)	anxiety-related behavior [1]	motor function [1]	tau pathology [1]	polyglutamine aggregates and cell survival [2]
2-hydroxypropyl-β-cyclodextrins [HPβCD]	far greater HPβCD efficacy at much lower doses	does not cross the blood-brain barrier in significant amounts	can moderately impact CNS manifestations	–	–	–	–
OC[C@H]1O[C@H](O[C@H]2O[C@H](CO)[C@@H](O)[C@H](O)[C@H]2O)[C@H](O)[C@@H](O)[C@@H]1O [trehalose]	–	–	–	Reduced anxiety-related behavior	improved motor function	decreased tau pathology	decreased polyglutamine aggregates and/or improved cell survival
